# Test results: patent US10010589B2, “Modified therapeutic agents, stapled peptide lipid conjugates, and compositions thereof” (priority 2013, dated 2018)
# *1 amine or outer side, *2 acyl side, *3 side chain or, on linkers, in order; H or OH if unused. Where a SMILES comes first, the peptide text is derived from it. Bridges are numbered along the chain shown (N, C = ends). CH2CONH(CH2)4NHCOCH2 = O=C(C[*:1])NCCCCNC(=O)C[*:2]
# Target: T1, human Glucagon-like peptide 2 receptor (GLP-2R) (Homo sapiens, UniProt O95838)
# T1 construct: expressed in transfected cells
# T1 sequence (O95838 1-553): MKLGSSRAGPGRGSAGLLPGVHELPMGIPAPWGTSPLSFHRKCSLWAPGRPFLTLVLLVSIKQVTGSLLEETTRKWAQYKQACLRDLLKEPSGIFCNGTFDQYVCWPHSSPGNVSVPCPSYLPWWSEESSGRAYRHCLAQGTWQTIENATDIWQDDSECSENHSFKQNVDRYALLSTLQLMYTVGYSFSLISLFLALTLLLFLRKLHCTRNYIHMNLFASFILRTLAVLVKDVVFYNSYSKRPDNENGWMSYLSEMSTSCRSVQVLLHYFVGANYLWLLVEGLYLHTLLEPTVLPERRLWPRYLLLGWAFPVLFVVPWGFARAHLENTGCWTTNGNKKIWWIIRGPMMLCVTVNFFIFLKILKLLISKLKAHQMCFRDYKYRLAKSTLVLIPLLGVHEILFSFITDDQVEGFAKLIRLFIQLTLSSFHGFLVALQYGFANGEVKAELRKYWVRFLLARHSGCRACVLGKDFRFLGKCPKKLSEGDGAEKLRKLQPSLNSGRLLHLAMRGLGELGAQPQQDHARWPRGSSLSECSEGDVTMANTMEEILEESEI
# Assay: GLP-2R CRE luciferase assay (receptor-mediated cAMP synthesis)
# Assay type: cell-based
# Procedure: CREB responsive luciferase stable HEK 293 cell line overexpressing human glucagon receptor (GCGR), glucagon-like peptide 1 receptor (GLP-1R), Glucose-dependent insulinotropic polypeptide receptor (GIPR), or Glucagon-like peptide 2 receptor (GLP-2R) was generated as follows.
# HEK293 cells were infected with lent virus encoding firefly luciferase gene under the control of CRE promoter, as described in the manual (Qiagen, Netherlands) and then were selected using 1 μg/mL puromycin (Life technologies, Carlsbad) for 1 week. The survived cells were named as CRE-HEK293, expanded and then transfected with a G418 selective mammalian expression plasmid encoding human GCGR, GLP-1R, GIPR or GLP-2R. In brief, GCGR, GLP-1R, GIPR, or GLP-2R plasmid was transfected into CRE-HEK293 cells using Lipofectamine 2000 and selected with 400 μg/mL geneticin (Life technologies, Carlsbad, Calif.). […]
# HEK293-GCGR-CRE, HEK293-GLP-1R-CRE, HEK293-GIPR-CRE, and HEK293-GLP-2R-CRE cells were seeded in a white 384-well plate at a density of 5,000 cells per well and cultured for 24 hours. […] On the next day, 10 μl of Bright-Glo reagent (Promega, Madison, Wis.) were added into each well and firefly luminescence was determined using an Envision multilabel plate reader (PerkinElmer, Waltham, Mass.). EC50 of each peptide was calculated using GraphPad Prism 6 software (GraphPad, San Diego, Calif.).
structure (smiles),measurement,value
CC[C@H](C)[C@@H]1NC(=O)[C@H](Cc2ccccc2)NC(=O)[C@H](CC(=O)O)NC(=O)[C@H](CCCNC(=N)N)NC(=O)[C@H](C)NC(=O)[C@H](C)NC(=O)[C@H](CC(C)C)NC(=O)[C@@H](NC(=O)[C@H](CC(=O)O)NC(=O)[C@H](CC(C)C)NC(=O)[C@@H](NC(=O)[C@@H](NC(=O)[C@H](CC(N)=O)NC(=O)[C@H](CCSC)NC(=O)[C@H](CCC(=O)O)NC(=O)[C@H](CC(=O)O)NC(=O)[C@H](CO)NC(=O)[C@H](Cc2ccccc2)NC(=O)[C@H](CO)NC(=O)CNC(=O)[C@H](CC(=O)O)NC(=O)CNC(=O)[C@@H](N)Cc2c[nH]cn2)[C@@H](C)O)[C@@H](C)CC)CSCC(=O)NCCCCNC(=O)CSC[C@@H](C(=O)N[C@@H](Cc2c[nH]c3ccccc23)C(=O)N[C@@H](CC(C)C)C(=O)N[C@H](C(=O)N[C@@H](CCC(N)=O)C(=O)N[C@H](C(=O)N[C@@H](CCCCN)C(=O)N[C@H](C(=O)N[C@H](C(=O)N[C@@H](CC(=O)O)C(N)=O)[C@@H](C)O)[C@@H](C)CC)[C@@H](C)O)[C@@H](C)CC)NC1=O [mTA52] (H-HGDGSFSDEMNTILDCLAARDFICWLIQTKITD-NH2; linker 16-24 via CH2CONH(CH2)4NHCOCH2),EC50,5.6 nM
